# Test results taken from patent publication US8906944B2, “Compounds as tyrosine kinase modulators” (Allergan, Inc., priority 2009, dated 2014).
# What was measured:
# [1] = molecular target: T1, human VEGF receptor (VEGFR-2) (Homo sapiens, UniProt P35968); experiment: VEGFR2 kinase assay; assay type: biochemical; settings: His-VEGFR-2 cytoplasmic domain, 3.6 μM ATP; Table IV, amide or urea linker; read-out: VEGFR2 Enzyme IC50
# T1 construct: The cytoplasmic domain of the human VEGF receptor (VEGFR-2) was expressed; His; made in house; host or cells: insect cells (baculovirus)
# T1 sequence (P35968 786-1356 limits assumed): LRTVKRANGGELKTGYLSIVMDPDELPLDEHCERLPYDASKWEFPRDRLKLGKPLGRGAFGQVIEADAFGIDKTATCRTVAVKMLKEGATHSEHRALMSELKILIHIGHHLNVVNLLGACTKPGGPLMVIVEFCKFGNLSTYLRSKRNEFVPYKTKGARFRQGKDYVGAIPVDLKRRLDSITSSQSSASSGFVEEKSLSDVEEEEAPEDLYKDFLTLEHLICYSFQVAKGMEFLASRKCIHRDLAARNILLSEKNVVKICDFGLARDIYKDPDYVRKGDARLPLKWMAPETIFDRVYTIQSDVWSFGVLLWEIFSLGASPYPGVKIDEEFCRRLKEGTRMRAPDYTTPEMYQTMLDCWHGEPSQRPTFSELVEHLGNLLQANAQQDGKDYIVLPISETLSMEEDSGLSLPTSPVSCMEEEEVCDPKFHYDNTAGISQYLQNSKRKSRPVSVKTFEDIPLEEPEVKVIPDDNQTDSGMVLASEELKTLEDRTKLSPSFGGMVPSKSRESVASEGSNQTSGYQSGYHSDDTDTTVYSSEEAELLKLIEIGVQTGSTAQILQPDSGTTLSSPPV
# Protocol: The cytoplasmic domain of the human VEGF receptor (VEGFR-2) was expressed as a Histidine-tagged fusion protein following infection of insect cells using an H is engineered baculovirus. […] Kinase assays were performed in 96 well microtiter plates that were coated overnight with 30 µg of poly-Glu-Tyr (4:1) in 10 mM Phosphate Buffered Saline (PBS), pH 7.2-7.4. The plates were incubated with 1% BSA and then washed four times with PBS prior to starting the reaction. Reactions were carried out in 120 µL reaction volumes containing 3.6 µM ATP in kinase buffer (50 mM Hepes buffer pH 7.4, 20 mM MgCl2, 0.1 mM MnCl2 and 0.2 mM Na3 VO4). […] Reactions were initiated by the addition 0.5 ng of purified protein. Following a ten minute incubation at 25 degree. […] IC50 values for compound inhibition were calculated directly from graphs of optical density (arbitrary units) versus compound concentration following subtraction of blank values.
# VEGFR1 = VEGFR1 (Homo sapiens, UniProt P17948); experiment: VEGFR1 enzyme assay; assay type: biochemical; settings: Table IV, amide or urea linker
# Chain of VEGFR1 (P17948 27-1338, species assumed): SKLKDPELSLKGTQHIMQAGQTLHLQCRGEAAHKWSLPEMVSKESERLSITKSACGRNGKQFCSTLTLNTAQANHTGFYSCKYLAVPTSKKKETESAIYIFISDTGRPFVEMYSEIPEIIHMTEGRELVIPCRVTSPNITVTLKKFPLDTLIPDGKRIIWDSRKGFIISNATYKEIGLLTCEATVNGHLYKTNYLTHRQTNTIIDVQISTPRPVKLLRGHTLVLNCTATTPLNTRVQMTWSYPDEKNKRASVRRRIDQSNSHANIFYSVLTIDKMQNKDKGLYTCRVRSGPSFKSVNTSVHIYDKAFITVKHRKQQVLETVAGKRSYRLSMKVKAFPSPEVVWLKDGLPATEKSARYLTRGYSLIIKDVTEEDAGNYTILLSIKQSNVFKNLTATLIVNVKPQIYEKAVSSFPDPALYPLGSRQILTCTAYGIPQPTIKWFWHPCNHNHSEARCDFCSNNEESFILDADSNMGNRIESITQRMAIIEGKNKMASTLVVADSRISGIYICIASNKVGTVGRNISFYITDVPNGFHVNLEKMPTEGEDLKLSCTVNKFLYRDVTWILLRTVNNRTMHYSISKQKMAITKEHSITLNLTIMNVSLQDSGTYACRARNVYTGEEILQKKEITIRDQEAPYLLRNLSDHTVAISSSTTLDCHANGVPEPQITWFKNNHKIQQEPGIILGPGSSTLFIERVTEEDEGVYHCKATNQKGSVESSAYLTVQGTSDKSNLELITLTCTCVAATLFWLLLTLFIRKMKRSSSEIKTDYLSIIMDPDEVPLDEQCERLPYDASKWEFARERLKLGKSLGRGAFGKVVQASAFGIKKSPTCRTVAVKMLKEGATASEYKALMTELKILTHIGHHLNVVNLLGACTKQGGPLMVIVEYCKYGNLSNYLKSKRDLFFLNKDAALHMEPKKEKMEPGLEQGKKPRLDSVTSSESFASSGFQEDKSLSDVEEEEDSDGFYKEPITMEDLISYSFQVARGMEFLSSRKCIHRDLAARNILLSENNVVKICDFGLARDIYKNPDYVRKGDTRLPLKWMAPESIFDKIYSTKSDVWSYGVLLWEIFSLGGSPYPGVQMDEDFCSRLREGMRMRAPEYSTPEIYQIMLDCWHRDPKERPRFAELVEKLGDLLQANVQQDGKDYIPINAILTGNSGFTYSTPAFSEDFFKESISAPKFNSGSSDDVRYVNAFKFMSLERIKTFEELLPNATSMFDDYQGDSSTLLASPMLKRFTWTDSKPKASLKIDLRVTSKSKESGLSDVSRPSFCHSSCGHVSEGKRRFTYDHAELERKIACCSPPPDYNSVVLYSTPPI
# VEGFR2 = VEGFR2 (Homo sapiens, UniProt P35968); experiment: VEGF stimulated Ca++ signal in vitro (FLIPR)
# Chain of VEGFR2 (P35968 20-1356): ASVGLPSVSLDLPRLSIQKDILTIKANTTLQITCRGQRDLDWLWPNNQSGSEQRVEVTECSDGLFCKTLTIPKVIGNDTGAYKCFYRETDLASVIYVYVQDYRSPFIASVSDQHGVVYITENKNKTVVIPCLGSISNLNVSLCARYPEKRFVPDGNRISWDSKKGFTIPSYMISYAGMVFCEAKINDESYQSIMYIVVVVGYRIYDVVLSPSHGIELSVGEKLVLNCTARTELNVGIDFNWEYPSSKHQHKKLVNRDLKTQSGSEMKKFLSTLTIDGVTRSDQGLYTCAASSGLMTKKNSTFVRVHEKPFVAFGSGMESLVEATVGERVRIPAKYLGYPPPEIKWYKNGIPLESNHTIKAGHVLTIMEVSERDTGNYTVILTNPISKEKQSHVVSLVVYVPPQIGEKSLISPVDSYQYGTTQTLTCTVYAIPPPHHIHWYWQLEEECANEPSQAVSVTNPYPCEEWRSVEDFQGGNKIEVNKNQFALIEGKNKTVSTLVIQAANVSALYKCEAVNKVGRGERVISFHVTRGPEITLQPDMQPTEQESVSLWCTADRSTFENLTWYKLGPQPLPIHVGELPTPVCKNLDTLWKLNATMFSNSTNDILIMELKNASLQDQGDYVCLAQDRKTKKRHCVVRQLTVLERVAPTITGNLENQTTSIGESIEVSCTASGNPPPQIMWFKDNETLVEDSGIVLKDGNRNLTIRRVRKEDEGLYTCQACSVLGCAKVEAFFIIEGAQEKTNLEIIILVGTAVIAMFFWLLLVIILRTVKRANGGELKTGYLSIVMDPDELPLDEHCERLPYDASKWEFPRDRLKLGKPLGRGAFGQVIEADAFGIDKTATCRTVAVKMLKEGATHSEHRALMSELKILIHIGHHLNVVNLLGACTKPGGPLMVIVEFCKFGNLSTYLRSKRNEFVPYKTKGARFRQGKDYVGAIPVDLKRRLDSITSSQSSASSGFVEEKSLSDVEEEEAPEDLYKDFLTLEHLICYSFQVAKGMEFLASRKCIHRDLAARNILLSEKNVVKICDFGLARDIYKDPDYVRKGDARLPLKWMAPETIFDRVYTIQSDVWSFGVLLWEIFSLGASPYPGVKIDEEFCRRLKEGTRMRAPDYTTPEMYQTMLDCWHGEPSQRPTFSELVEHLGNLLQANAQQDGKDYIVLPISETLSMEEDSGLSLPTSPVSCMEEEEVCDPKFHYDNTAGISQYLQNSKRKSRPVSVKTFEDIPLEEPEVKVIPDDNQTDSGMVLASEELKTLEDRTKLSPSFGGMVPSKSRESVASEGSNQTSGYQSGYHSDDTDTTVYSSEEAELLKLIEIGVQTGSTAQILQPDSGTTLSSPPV
# Protocol: VEGF Stimulated Ca^++Signal in Vitro
# Automated FLIPR (Fluorometric Imaging Plate Reader) technology was used to screen for inhibitors of VEGF induced increases in intracellular calcium levels in fluorescent dye loaded endothelial cells. HUVEC (human umbilical vein endothelial cells) (Clonetics) were seeded in 96-well fibronectin coated black-walled plates overnight at 37 degree. C./5% CO2. […] C. Cells were washed 4 times (Original Cell Wash, Labsystems) to remove extracellular dye. […] Data were generated by determining max-min fluorescence levels for unstimulated, stimulated, and drug treated samples. IC50 values for test compounds were calculated from % inhibition of VEGF stimulated responses in the absence of inhibitor.
# PDGFβ = PDGFβ (Homo sapiens, UniProt P09619); experiment: PDGFβ enzyme assay; assay type: biochemical; settings: Table IV, amide or urea linker
# Chain of PDGFβ (P09619 33-1106): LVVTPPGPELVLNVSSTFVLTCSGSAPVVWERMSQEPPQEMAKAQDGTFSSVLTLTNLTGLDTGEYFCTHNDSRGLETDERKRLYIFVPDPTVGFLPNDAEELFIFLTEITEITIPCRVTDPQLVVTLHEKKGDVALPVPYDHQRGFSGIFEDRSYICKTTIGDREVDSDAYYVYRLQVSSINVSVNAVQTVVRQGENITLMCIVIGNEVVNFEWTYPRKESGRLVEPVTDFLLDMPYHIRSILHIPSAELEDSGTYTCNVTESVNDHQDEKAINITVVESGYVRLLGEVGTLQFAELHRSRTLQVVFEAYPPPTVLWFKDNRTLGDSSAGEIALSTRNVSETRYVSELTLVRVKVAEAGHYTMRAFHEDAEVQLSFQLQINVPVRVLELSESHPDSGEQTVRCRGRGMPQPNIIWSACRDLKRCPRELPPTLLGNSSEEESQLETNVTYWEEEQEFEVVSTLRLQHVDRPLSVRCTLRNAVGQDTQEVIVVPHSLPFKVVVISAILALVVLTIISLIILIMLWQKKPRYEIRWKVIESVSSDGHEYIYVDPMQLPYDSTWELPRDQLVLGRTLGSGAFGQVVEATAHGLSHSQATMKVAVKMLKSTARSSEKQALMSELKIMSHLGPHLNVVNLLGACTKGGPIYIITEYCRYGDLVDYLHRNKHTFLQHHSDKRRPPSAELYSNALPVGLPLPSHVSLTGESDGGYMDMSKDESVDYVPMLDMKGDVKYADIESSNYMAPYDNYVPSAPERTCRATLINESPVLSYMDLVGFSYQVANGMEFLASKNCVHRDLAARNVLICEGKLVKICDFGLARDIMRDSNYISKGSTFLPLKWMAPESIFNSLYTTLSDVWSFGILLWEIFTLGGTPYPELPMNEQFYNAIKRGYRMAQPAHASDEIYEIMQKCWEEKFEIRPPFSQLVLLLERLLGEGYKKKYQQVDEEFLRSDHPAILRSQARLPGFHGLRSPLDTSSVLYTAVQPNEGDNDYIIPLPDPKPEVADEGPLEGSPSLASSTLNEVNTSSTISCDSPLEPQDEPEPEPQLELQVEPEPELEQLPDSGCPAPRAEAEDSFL
Structure (SMILES),IC50 [1] [nM],IC50 (VEGFR1) [nM],IC50 (VEGFR2) [nM],IC50 (PDGFβ) [nM]
"COC(=O)[C@@H]1CCCN1CCCNC(=O)c1c[nH]c(-c2cc(Oc3ccc(F)c(NC(=O)c4occc4C)c3)ccn2)c1 [Example 188, methyl 1-[3-({[5-(4-{4-fluoro-3-[(3-methyl-2-furoyl)amino]phenoxy}pyridin-2-yl)-1H-pyrrol-3-yl]carbonyl}amino)propyl]pyrrolidine-2-carboxylate]",27,32,5,–
"Cc1ccoc1C(=O)Nc1cc(Oc2ccnc(-c3cc(C(=O)NCCCN4CCC(O)CC4)c[nH]3)c2)ccc1F [Example 189, 5-(4-{4-fluoro-3-[(3-methyl-2-furoyl)amino]phenoxy}pyridin-2-yl)-N-[3-(4-hydroxypiperidin-1-yl)propyl]-1H-pyrrole-3-carboxamide]",34,37,15,–
"Cc1ccoc1C(=O)Nc1cc(Oc2ccnc(-c3cc(C(=O)NCCCN4CCN(C)CC4)c[nH]3)c2)ccc1F [Example 193, 5-(4-{4-fluoro-3-[(3-methyl-2-furoyl)amino]phenoxy}pyridin-2-yl)-N-[3-(4-methylpiperazin-1-yl)propyl]-1H-pyrrole-3-carboxamide]",31,35,11,–
"COCCOC(=O)CCCNC(=O)c1c[nH]c(-c2cc(Oc3ccc(NC(=O)Nc4cc(C)ccc4F)cc3)ccn2)c1 [Example 233, 2-methoxyethyl 4-{[(5-{4-[4-({[(2-fluoro-5-methylphenyl)amino]carbonyl}amino)phenoxy]pyridin-2-yl}-1H-pyrrol-3-yl)carbonyl]amino}butanoate]",9,–,5,22
"Cc1ccc(F)c(NC(=O)Nc2ccc(Oc3ccnc(-c4cc(C(=O)NCCCC(=O)OCC(CO)(CO)CO)c[nH]4)c3)cc2)c1 [Example 234, 3-hydroxy-2,2-bis(hydroxymethyl)propyl 4-{[(5-{4-[4-({[(2-fluoro-5-methylphenyl)amino]carbonyl}amino)phenoxy]pyridin-2-yl}-1H-pyrrol-3-yl)carbonyl]amino}butanoate]",8,11,–,17
"Cc1cccc(NC(=O)Nc2ccc(Oc3ccnc(-c4cc(C(=O)NN)c[nH]4)c3)cc2)c1 [Example 238, 1-[4-({2-[4-(hydrazinocarbonyl)-1H-pyrrol-2-yl]pyridin-4-yl}oxy)phenyl]-3-(3-methylphenyl)urea]",19,–,4,28
"Cc1cccc(NC(=O)Nc2ccc(Oc3ccnc(-c4cc(C(=O)NCCCN5CCOCC5)c[nH]4)c3)cc2)c1 [Example 239, 5-{4-[4-({[(3-methylphenyl)amino]carbonyl}amino)phenoxy]pyridin-2-yl}-N-(3-morpholin-4-ylpropyl)-1H-pyrrole-3-carboxamide]",7,–,2,16
"Cc1ccc(F)c(NC(=O)c2ccc(F)c(Oc3ccnc(-c4cc(C(=O)NCCCO)c[nH]4)c3)c2)c1 [Example 244, 5-[4-(2-fluoro-5-{[(2-fluoro-5-methylphenyl)amino]carbonyl}phenoxy)pyridin-2-yl]-N-(3-hydroxypropyl)-1H-pyrrole-3-carboxamide]",12,31,–,94
"Cc1ccc(F)c(NC(=O)Nc2ccc(Oc3ccnc(-c4cc(C(=O)NCCCN5CCCC5C(=O)O)c[nH]4)c3)cc2)c1 (stereo not drawn) [Example 247, 1-(3-{[(5-{4-[4-({[(2-fluoro-5-methylphenyl)amino]carbonyl}amino)phenoxy]pyridin-2-yl}-1H-pyrrol-3-yl)carbonyl]amino}propyl)pyrrolidine-2-carboxylic acid]",15,25,–,21
"COC(=O)CC[C@H](NC(=O)c1c[nH]c(-c2cc(Oc3cc(C(=O)Nc4cc(C)ccc4F)ccc3F)ccn2)c1)C(=O)OC [Example 249, dimethyl 2-[({5-[4-(2-fluoro-5-{[(2-fluoro-5-methylphenyl)amino]carbonyl}phenoxy)pyridin-2-yl]-1H-pyrrol-3-yl}carbonyl)amino]pentanedioate]",33,46,–,55
"Cc1ccc(F)c(NC(=O)Nc2ccc(Oc3ccnc(-c4cc(C(=O)NCCCN)c[nH]4)c3)cc2)c1 [Example 250, N-(3-aminopropyl)-5-{4-[4-({[(2-fluoro-5-methylphenyl)amino]carbonyl}amino)phenoxy]pyridin-2-yl}-1H-pyrrole-3-carboxamide]",24,8,–,54
"Cc1ccc(F)c(NC(=O)Nc2ccc(Oc3ccnc(-c4cc(C(=O)NCCCNC(=O)OC(C)(C)C)c[nH]4)c3)cc2)c1 [Example 251, tert-butyl (3-{[(5-{4-[4-({[(2-fluoro-5-methylphenyl)amino]carbonyl}amino)phenoxy]pyridin-2-yl}-1H-pyrrol-3-yl)carbonyl]amino}propyl)carbamate]",46,18,–,79
"Cc1ccc(F)c(NC(=O)c2ccc(F)c(Oc3ccnc(-c4cc(C(=O)NCCCN)c[nH]4)c3)c2)c1 [Example 252, N-(3-aminopropyl)-5-[4-(2-fluoro-5-{[(2-fluoro-5-methylphenyl)amino]carbonyl}phenoxy)pyridin-2-yl]-1H-pyrrole-3-carboxamide]",24,25,–,99
"Cc1ccc(F)c(NC(=O)c2ccc(F)c(Oc3ccnc(-c4cc(C(=O)NCCCNC(=O)OC(C)(C)C)c[nH]4)c3)c2)c1 [Example 253, tert-butyl {3-[({5-[4-(2-fluoro-5-{[(2-fluoro-5-methylphenyl)amino]carbonyl}phenoxy)pyridin-2-yl]-1H-pyrrol-3-yl}carbonyl)amino]propyl}carbamate]",64,36,–,200
"Cc1ccc(F)c(NC(=O)c2ccc(F)c(Oc3ccnc(-c4cc(C(=O)NCCCN5CCOCC5)c[nH]4)c3)c2)c1 [Example 254, 5-[4-(2-fluoro-5-{[(2-fluoro-5-methylphenyl)amino]carbonyl}phenoxy)pyridin-2-yl]-N-(3-morpholin-4-ylpropyl)-1H-pyrrole-3-carboxamide]",24,35,–,35
"CCNC(=O)[C@H](CCC(=O)O)NC(=O)c1c[nH]c(-c2cc(Oc3cc(C(=O)Nc4cc(C)ccc4F)ccc3F)ccn2)c1 [Example 255, 5-(ethylamino)-4-[({5-[4-(2-fluoro-5-{[(2-fluoro-5-methylphenyl)amino]carbonyl}phenoxy)pyridin-2-yl]-1H-pyrrol-3-yl}carbonyl)amino]-5-oxopentanoic acid]",28,44,–,185
"CCNC(=O)[C@H](CCC(=O)OC(C)(C)C)NC(=O)c1c[nH]c(-c2cc(Oc3cc(C(=O)Nc4cc(C)ccc4F)ccc3F)ccn2)c1 [Example 256, tert-butyl 5-(ethylamino)-4-[({5-[4-(2-fluoro-5-{[(2-fluoro-5-methylphenyl)amino]carbonyl}phenoxy)pyridin-2-yl]-1H-pyrrol-3-yl}carbonyl)amino]-5-oxopentanoate]",55,24,–,167
"Cc1ccc(F)c(NC(=O)c2ccc(F)c(Oc3ccnc(-c4cc(C(=O)N[C@@H](CCC(=O)OC(C)(C)C)C(=O)O)c[nH]4)c3)c2)c1 [Example 257, 5-tert-butoxy-2-[({5-[4-(2-fluoro-5-{[(2-fluoro-5-methylphenyl)amino]carbonyl}phenoxy)pyridin-2-yl]-1H-pyrrol-3-yl}carbonyl)amino]-5-oxopentanoic acid]",53,18,–,180
"Cc1ccc(F)c(NC(=O)c2ccc(F)c(Oc3ccnc(-c4cc(C(=O)NCCC(=O)O)c[nH]4)c3)c2)c1 [Example 258, 3-[({5-[4-(2-fluoro-5-{[(2-fluoro-5-methylphenyl)amino]carbonyl}phenoxy)pyridin-2-yl]-1H-pyrrol-3-yl}carbonyl)amino]propanoic acid]",36,21,–,41
"COC(=O)CCNC(=O)c1c[nH]c(-c2cc(Oc3cc(C(=O)Nc4cc(C)ccc4F)ccc3F)ccn2)c1 [Example 259, methyl 3-[({5-[4-(2-fluoro-5-{[(2-fluoro-5-methylphenyl)amino]carbonyl}phenoxy)pyridin-2-yl]-1H-pyrrol-3-yl}carbonyl)amino]propanoate]",35,23,–,47
"Cc1ccc(F)c(NC(=O)Nc2ccc(Oc3ccnc(-c4csc(C(=O)NCCC(=O)O)c4)c3)cc2)c1 [Example 278, 3-{[(4-{4-[4-({[(2-fluoro-5-methylphenyl)amino]carbonyl}amino)phenoxy]pyridin-2-yl}-2-thienyl)carbonyl]amino}propanoic acid]",14,15,–,16
"COC(=O)CCNC(=O)c1cc(-c2cc(Oc3ccc(NC(=O)Nc4cc(C)ccc4F)cc3)ccn2)cs1 [Example 279, methyl 3-{[(4-{4-[4-({[(2-fluoro-5-methylphenyl)amino]carbonyl}amino)phenoxy]pyridin-2-yl}-2-thienyl)carbonyl]amino}propanoate]",21,–,1,23
